Results reported in patent US6802882B2, “Nitrification inhibitors, and the use of polyacids which contain a nitrification inhibitor for the treatment of inorganic fertilizers” (BASF Aktiengesellschaft, priority 1996, dated 2004).
Each block holds one compound with its values, some of them ahead of it.

Tests used:
nitrification [1] = experiment: Field tests: NO3- and NH4-N-amounts in soil; type: in vivo; settings: for Ø NH4-N amount in soil / Ø NO3-N amount in soil: n = 5, locations 1-5; for biological effectiveness (in words): field tests, results of table 1, reduced amounts of the active substance versus DCD
Experimental: The biological effectiveness of 4-chloro-3-methylpyrazole (4 Cl-3MP) and 3,4-dimethylpyrazole (3,4-DMP) in comparison with DCD and the control was tested in multiple field tests in different environments by means of the features “nitrate content in the basis of the stem”, “NO3— and NH4—N-content in the soil” as well as “grain produce”.
The standard methods used in agricultural tests were applied to the laying-out, probing, harvesting and evaluation of the field tests.
The analysis of the plant and soil samples followed standard procedures. The remaining measures undertaken in the production, e.g. plant protection, were in accordance with good agricultural practice and were applied uniformly.

winter wheat = experiment: Field tests: grain produce of winter wheat; type: in vivo
Experimental: (§1) The biological effectiveness of 4-chloro-3-methylpyrazole (4 Cl-3MP) and 3,4-dimethylpyrazole (3,4-DMP) in comparison with DCD and the control was tested in multiple field tests in different environments by means of the features “nitrate content in the basis of the stem”, “NO3— and NH4—N-content in the soil” as well as “grain produce”. The standard methods used in agricultural tests were applied to the laying-out, probing, harvesting and evaluation of the field tests. The analysis of the plant and soil samples followed standard procedures. The remaining measures undertaken in the production, e.g. plant protection, were in accordance with good agricultural practice and were applied uniformly. As a consequence of this treatment the nitrate consumption of the plants is reduced (compare NO3-content in the basis of the stem of rape plants, table 2) and the produce is enhanced (compare grain produce of winter wheat, tables 3a and 3b).

rape plants = experiment: Field tests: NO3 amount in the basis of the stem of rape plants; type: in vivo; settings: n = 5, locations 1-5
Experimental: as §1

nitrification [2] = experiment: Nitrification inhibiting effect of different pyrazoles; design: concentration or dose not given beside the values
[3] = Storage stability rapid test of treated inorganic fertilizers (loss of nitrification inhibitor); type: physicochemical; settings: on ammonium sulfate nitrate carrier fertilizer; 4 weeks at 30° C., 40 to 50% relative atmospheric humidity, approx. 1.2 m/s air velocity
Experimental: The carrier fertilizer used was ammonium sulfate nitrate (ASN). 2 g of pyrazole were dissolved in a little water, and if desired (see Table I) the solution was mixed with a stoichiometric amount of phosphoric acid (1:1) and with from 1 to 10 g of polyacrylic acid or polyphosphoric acid. […] of the carrier fertilizer in the form of granules were prewarmed to approximately 50° C. and slowly sprayed onto a turntable with the mixture containing the pyrazole compound. To accelerate the drying, drying was carried out with hot air, either at the end of the spraying or after interruption of the spraying.
The storage stability of the treated inorganic fertilizers was determined in a rapid test in which the nitrification-inhibited inorganic fertilizers were stored in a ventilated warming cabinet for 4 weeks at 30° C., from 40 to 50% relative atmospheric humidity and approximately 1.2 m/s air velocity. The concentration of nitrification inhibitor on the inorganic fertilizer was determined before and after storage and the loss of nitrification inhibitor determined in percent. Approximately 10 to 30 g of treated inorganic fertilizer were stored in each case. The concentration of pyrazole compound as nitrification inhibitor in this case was from 0.05% by weight to 0.2% by weight at the start of the investigation, based on the treated inorganic fertilizer.

Structure (SMILES): Cc1cn(CO)nc1C [N-hydroxyl-3,4-DMP, N-hydroxymethyl-3,4-dimethylpyrazole]
- % inhibition per applied amount of ammonium (nitrification [2]; column head 1): 85%
- % inhibition per applied amount of ammonium (nitrification [2]; column head 2): 54%
- % inhibition per applied amount of ammonium (nitrification [2]; column head 4): 40%
- % inhibition per applied amount of ammonium (nitrification [2]; column head 6): 31%
- % inhibition per applied amount of ammonium (nitrification [2]; column head 8): 10%

Structure (SMILES): Cc1cc[nH]n1.O=P(O)(O)O [3-Methylpyrazole phosphate, reference compound]
- Loss in percent (loss of nitrification inhibitor during storage) [3]: 55%

Structure (SMILES): Cc1nn(CO)cc1Cl [N-hydroxy-4Cl-3MP, N-hydroxymethyl-4-chloro-3-methylpyrazole]
- % inhibition per applied amount of ammonium (nitrification [2]; column head 1): 87%
- % inhibition per applied amount of ammonium (nitrification [2]; column head 2): 58%
- % inhibition per applied amount of ammonium (nitrification [2]; column head 4): 45%
- % inhibition per applied amount of ammonium (nitrification [2]; column head 6): 30%
- % inhibition per applied amount of ammonium (nitrification [2]; column head 8): 15%

Structure (SMILES): N#CN=C(N)N [DCD, reference compound]
- Ø NH4-N amount in soil (nitrification [1]; 2 weeks after application): 87 kg/ha
- Ø NO3-N amount in soil (nitrification [1]; 2 weeks after application): 47 kg/ha
- Ø NH4-N amount in soil (nitrification [1]; 4 weeks after application): 68 kg/ha
- Ø NO3-N amount in soil (nitrification [1]; 4 weeks after application): 44 kg/ha
- Ø NH4-N amount in soil (nitrification [1]; 6 weeks after application): 82 kg/ha
- Ø NO3-N amount in soil (nitrification [1]; 6 weeks after application): 35 kg/ha
- Ø NH4-N amount in soil (nitrification [1]; 8 weeks after application): 39 kg/ha
- Ø NO3-N amount in soil (nitrification [1]; 8 weeks after application): 29 kg/ha
- grain produce of winter wheat (winter wheat; location 2 (lean clay)): 94.3 dt/ha
- grain produce of winter wheat (winter wheat; location 4 (loamy sand)): 52.6 dt/ha
- Ø NO3 amount in the basis of the stem of rape plants (rape plants; 2 weeks after application): 8036 ppm
- Ø NO3 amount in the basis of the stem of rape plants (rape plants; 4 weeks after application): 7022 ppm
- Ø NO3 amount in the basis of the stem of rape plants (rape plants; 6 weeks after application): 4728 ppm
- Ø NO3 amount in the basis of the stem of rape plants (rape plants; 8 weeks after application): 4274 ppm

Second part, led by results:

- Loss in percent (loss of nitrification inhibitor during storage) [3]: 100%
Structure (SMILES): Cc1c[nH]nc1C [3,4-Dimethylpyrazole, 3,4-dimethylpyrazole]
- Ø NH4-N amount in soil (nitrification [1]; 2 weeks after application): 82 kg/ha
- Ø NO3-N amount in soil (nitrification [1]; 2 weeks after application): 54 kg/ha
- Ø NH4-N amount in soil (nitrification [1]; 4 weeks after application): 70 kg/ha
- Ø NO3-N amount in soil (nitrification [1]; 4 weeks after application): 43 kg/ha
- Ø NH4-N amount in soil (nitrification [1]; 6 weeks after application): 71 kg/ha
- Ø NO3-N amount in soil (nitrification [1]; 6 weeks after application): 44 kg/ha
- Ø NH4-N amount in soil (nitrification [1]; 8 weeks after application): 37 kg/ha
- Ø NO3-N amount in soil (nitrification [1]; 8 weeks after application): 28 kg/ha
- biological effectiveness (in words) (nitrification [1]): as good as or better than that of DCD
- grain produce of winter wheat (winter wheat; location 2 (lean clay)): 97.8 dt/ha
- Ø NO3 amount in the basis of the stem of rape plants (rape plants; 2 weeks after application): 8105 ppm
- Ø NO3 amount in the basis of the stem of rape plants (rape plants; 4 weeks after application): 6720 ppm
- Ø NO3 amount in the basis of the stem of rape plants (rape plants; 6 weeks after application): 4899 ppm
- Ø NO3 amount in the basis of the stem of rape plants (rape plants; 8 weeks after application): 4454 ppm
- % inhibition per applied amount of ammonium (nitrification [2]; column head 1): 88%
- % inhibition per applied amount of ammonium (nitrification [2]; column head 2): 61%
- % inhibition per applied amount of ammonium (nitrification [2]; column head 4): 48%
- % inhibition per applied amount of ammonium (nitrification [2]; column head 6): 34%
- % inhibition per applied amount of ammonium (nitrification [2]; column head 8): 27%

- Loss in percent (loss of nitrification inhibitor during storage) [3]: 100%
Structure (SMILES): Cc1cc[nH]n1 [3-Methylpyrazole, reference compound]
- % inhibition per applied amount of ammonium (nitrification [2]; column head 1): 90%
- % inhibition per applied amount of ammonium (nitrification [2]; column head 2): 58%
- % inhibition per applied amount of ammonium (nitrification [2]; column head 4): 45%
- % inhibition per applied amount of ammonium (nitrification [2]; column head 6): 27%
- % inhibition per applied amount of ammonium (nitrification [2]; column head 8): 22%

- Loss in percent (loss of nitrification inhibitor during storage) [3]: 100%
Structure (SMILES): Cc1n[nH]cc1Cl [4-Chloro-3-methylpyrazole, 4-chloro-3-methylpyrazole]
- Ø NH4-N amount in soil (nitrification [1]; 2 weeks after application): 115 kg/ha
- Ø NO3-N amount in soil (nitrification [1]; 2 weeks after application): 61 kg/ha
- Ø NH4-N amount in soil (nitrification [1]; 4 weeks after application): 79 kg/ha
- Ø NO3-N amount in soil (nitrification [1]; 4 weeks after application): 50 kg/ha
- Ø NH4-N amount in soil (nitrification [1]; 6 weeks after application): 76 kg/ha
- Ø NO3-N amount in soil (nitrification [1]; 6 weeks after application): 39 kg/ha
- Ø NH4-N amount in soil (nitrification [1]; 8 weeks after application): 40 kg/ha
- Ø NO3-N amount in soil (nitrification [1]; 8 weeks after application): 28 kg/ha
- biological effectiveness (in words) (nitrification [1]): as good as or better than that of DCD
- grain produce of winter wheat (winter wheat; location 4 (loamy sand)): 56.0 dt/ha
- Ø NO3 amount in the basis of the stem of rape plants (rape plants; 2 weeks after application): 8112 ppm
- Ø NO3 amount in the basis of the stem of rape plants (rape plants; 4 weeks after application): 6629 ppm
- Ø NO3 amount in the basis of the stem of rape plants (rape plants; 6 weeks after application): 4774 ppm
- Ø NO3 amount in the basis of the stem of rape plants (rape plants; 8 weeks after application): 4276 ppm
- % inhibition per applied amount of ammonium (nitrification [2]; column head 1): 88%
- % inhibition per applied amount of ammonium (nitrification [2]; column head 2): 66%
- % inhibition per applied amount of ammonium (nitrification [2]; column head 4): 48%
- % inhibition per applied amount of ammonium (nitrification [2]; column head 6): 32%
- % inhibition per applied amount of ammonium (nitrification [2]; column head 8): 21%

- Loss in percent (loss of nitrification inhibitor during storage) [3]: 31%
Structure (SMILES): Cc1cn[nH]c1C.O=P(O)(O)O [3,4-Dimethylpyrazole phosphate, 3,4-dimethylpyrazolium dihydrogen Phosphate]

- Loss in percent (loss of nitrification inhibitor during storage) [3]: 92%
Structure (SMILES): Cc1[nH]ncc1Cl.O=P(O)(O)O [4-Chloro-3-methylpyrazole phosphate, 4-chloro-3-methylpyrazolium dihydrogen Phosphate]
- % inhibition per applied amount of ammonium (nitrification [2]; column head 1): 91%
- % inhibition per applied amount of ammonium (nitrification [2]; column head 2): 62%
- % inhibition per applied amount of ammonium (nitrification [2]; column head 4): 53%
- % inhibition per applied amount of ammonium (nitrification [2]; column head 6): 45%
- % inhibition per applied amount of ammonium (nitrification [2]; column head 8): 27%
